This assay deals with plasma LH. In words: Intranasal kisspeptin-54, plasma LH in adult C57BL/6J male mice. Particulars: intranasal, 25 min post administration, N = 2. Format: in vivo, mouse. The protocol: Saline (placebo) or kisspeptin-54 were intranasally administered using a customised and unsharpened 2 mm long and 0.3 mm wide hypodermic needle (BD PrecisionGlide™; 30G; ref. 305106). Male mice were restrained and a single volume of 30 μL of the solution was delivered in one randomly chosen nostril with either 0.9% saline or different concentrations of kisspeptin-54 (1, 3, 12.8, 30, or 50 nM; equivalent to 0.001–0.05 nmol/kg). The protocol involved N = 5 mice per group, except concentrations 12.8 nM where N = 6 and 30 nM where N = 7. […] LH levels were assessed using a tail-tip serial blood sampling as previously reported.[64]^,[65] Briefly, samples containing 4 μL of whole blood were collected every 10 min over a 70-min-long period from each animal. The first sampling point was taken as baseline LH level (−5 min), and saline or kisspeptin-54 were administered at timepoint 0 min. Whole blood was collected into Eppendorf tubes pre-loaded with 50 μL of 0.1 M phosphate-buffered saline (PBS)-0.05% Tween, thoroughly mixed, and snap-frozen with dry ice and stored at −80 °C.
LH levels were measured using an established in-house and ultrasensitive mouse LH ELISA method as previously validated.[66] A primary coating antibody (bovine LHβ subunit, 518B7; L. Sibley; University of California, UC Davis, RRID AB_2756886) was used at a 1:1000 dilution in combination with a detection primary antibody (rabbit LH antiserum, AFP240580Rb, RRID AB_2665533; NIDDK- NHPP) used at 1:10,000 dilution, and a secondary horseradish peroxidase-conjugated antibody (goat anti-rabbit; Vector Laboratories, PI-1000, RRID AB_2336198) used at 1:10,000 dilution. The assay standard curve used a mouse LH-RP (AFP5306A, A. F. Parlow, National Hormone and Peptide Program; supplied by Golden West BioSolutions, California, USA; catalogue # TLIA1053.03). The assay sensitivity of this LH ELISA was 0.04 ng/mL, intra-assay coefficient of variation 4.1%, and inter-assay coefficient of variation 7.3%.
Statistical analyses were performed using GraphPad Prism (version 9.4.1). Data are presented as mean ± SEM. Normality of the data was determined using the Shapiro–Wilk test. The analysis considered increment in LH levels when average post-administration values were above significance (P < 0.05) compared to basal levels (−5 min) using repeated measures two-way ANOVA with Fishers least significant difference (LSD) test. Integrated LH response to kisspeptin-54 administration as indicated using the area under the curve (AUC) analysis when all peaks were above baseline values. The difference in AUC between groups was compared by one-way ANOVA with Fisher’s LSD test. In all cases, P < 0.05 was considered statistically significant.

As for “Dye-C-GTSLSPPPESSGSRQQPGLSAPHSRQIPAPQGAVLVQREKDLPNYNWNSFGLRF [kisspeptin-54-D2, Kisspeptin-54 labelled with a D2 fluorescent probe, developed by Cisbio Bioassays]”, the “Plasma LH response to the fluorescently tagged peptide” value was “robust LH increase”.

(Values after paper PMC12018048, “Intranasal kisspeptin administration rapidly stimulates gonadotropin release in humans” (eBioMedicine, 2025).)
